This data set can be described thus: Food effect study: single oral Skelaxin 400 mg tablet with vs without food, healthy subjects, plasma pharmacokinetics. Type of data set: in vivo, human. As to conditions: for AUC(0-inf) / AUC(0-t) / Cmax / half-life / Tmax: both sexes, human, plasma, oral, 400 mg; for half-life: read-out: T1/2, least squares mean (converted); for Tmax: read-out: Tmax, least squares mean. The method, then: The effect of food on metaxalone absorption was identified in a study designed to compare the bioavailability of 400 mg of metaxalone in the formulation the drug product Skelaxin® administered to healthy volunteers with and without food.
An objective was to evaluate the bioavailability of metaxalone when administered to subjects with and without food. A single center, single dose, open-label, two-period, randomized, crossover trial in healthy subjects was conducted over a period of approximately 32 days.
Treatment A: metaxalone tablet (400 mg) administered with food
Treatment B: metaxalone tablet (400 mg) administered without food
In fed treatment condition A, study drug was taken 15 minutes after the test meal. The test meal was consumed over a 15 minute time period. There was a 6-day washout period between study drug administrations. Seventeen blood samples were collected, starting with baseline (0 hour) and at the following time points: 0.5, 1, 1.5, 2, 2.5, 3, 3.5, 4, 4.5, 5, 6, 8, 12, 16; 24, and 36 hours.
A total of 44 subjects (31 males/13 females) were enrolled and dosed. Only the plasma of subjects who completed the study were assayed and used for the pharmacokinetic analysis.
A single center, single dose, open label, two-period crossover trial was devised for study in healthy subjects. Each administration was a single oral dose of one Skelaxin® 400 mg tablet with or without food. The study drug was administered as follows:
Treatment A: One (1) 400 mg tablet of metaxalone with 240 mL of room temperature water with food: Breakfast was given to the subjects 30 Minutes prior to dosing and eaten within a 15 minute period. The dose of study drug was administered to the subjects 15 minutes after the breakfast was finished.
Treatment B: One (1) 400 mg tablet of metaxalone with 240 mL of room temperature water without food. The study drug was administered with 240 mL room temperature water. A mouth check was performed to verify that the subjects swallowed the dose. Subjects were sequentially dosed at 1-minute intervals. The actual time of dosing was recorded on the Master Flow Sheet (refer to the Appendix 16.3.2 Clinical Study Data). Drug administration (1×400 mg tablet) was assisted with 240 mL of room temperature water consumed under direct observation. Immediately after administration of product, the subject's oral cavity was checked to confirm complete medication and fluid consumption. Dosing was completed as scheduled in 42 of 44 subjects.
The drug substance, metaxalone, was dosed in tablet form. Content 400 mg; Route: Oral, Batch/Lot No.: SKLWW263F; Expiration Date: FEB03; Manufacturer: West-Ward Pharmaceutical Corp.
All pharmacokinetic parameters were analyzed by noncompartmental methods. The following PK parameters were calculated for the two PK profiles and are defined as follows: […]
Tmax: Time to maximum concentration;
Cmax: Observed maximum concentration;
kel: Slope of terminal linear portion of concentration/time curve;
T1/2: Half-life of metaxalone calculated as: 0.693/Kel;
AUC(last): Area under the curve to last quantifiable concentration as measured by the trapezoidal rule;
AUC(inf): The AUC value extrapolated to infinity calculated as:
AUC(inf)=AUC(last)+C(t)last/Kel where C(t)last is the last measurable concentration.
All statistical analyses were performed using SAS® software version 6.08 or higher. The pharmacokinetic parameters between the two treatments were compared using an appropriate ANOVA model (analysis of variance) that includes terms for treatment, sequence, and period effect. Ninety percent confidence intervals were computed for the Cmax and AUC values of the fed treatment with fasting as the reference treatment. During the study there were no protocol deviations to confound the pharmacokinetic and bioavailability analyses. Study results were not corrected for drug potency.
Differences were declared to be significant at the 5% level. […]

[1] abbreviates: Treatment A: 400 mg tablet with food.
The mark [2] stands for this setting: Treatment B: 400 mg tablet without food.
[3] abbreviates: fed vs fasted, ln-transformed data.

Like-named read-outs stand apart in the source and are kept apart here.

Turning to `Cc1cc(C)cc(OCC2CNC(=O)O2)c1` (centres unmarked) [metaxalone, 5-[(3,5-dimethylphenoxy)methyl]-2 oxazolidinone], the “Bioavailability when administered with food” value (400 mg tablets, single dose, with food vs without) is listed as “increased”. In addition, the AUC(0-inf) is 8540 ng·h/mL (Treatment A: 400 mg tablet with food, read-out: AUC(inf), least squares mean); 7630 ng·h/mL (Treatment A: 400 mg tablet with food, read-out: Ln-Transformed AUC(inf), geometric mean); 7480 ng·h/mL (Treatment B: 400 mg tablet without food, read-out: AUC(inf), least squares mean); 6620 ng·h/mL (Treatment B: 400 mg tablet without food, read-out: Ln-Transformed AUC(inf), geometric mean). Also, the AUC(0-t) is 8440 ng·h/mL (Treatment A: 400 mg tablet with food, read-out: AUC(last), least squares mean); 7520 ng·h/mL (Treatment A: 400 mg tablet with food, read-out: Ln-Transformed AUC(last), geometric mean); 6960 ng·h/mL (Treatment B: 400 mg tablet without food, read-out: AUC(last), least squares mean); 6090 ng·h/mL (Treatment B: 400 mg tablet without food, read-out: Ln-Transformed AUC(last), geometric mean). Further, the Cmax turned out to be 1770 ng/mL (Treatment A: 400 mg tablet with food, read-out: Cmax, least squares mean); 1540 ng/mL (Treatment A: 400 mg tablet with food, read-out: Ln-Transformed Cmax, geometric mean); 983 ng/mL (Treatment B: 400 mg tablet without food, read-out: Cmax, least squares mean); 865 ng/mL (Treatment B: 400 mg tablet without food, read-out: Ln-Transformed Cmax, geometric mean). Also, the half-life is, setting by setting: under setting [1], 2.37 h; under setting [2], 9.04 h. Further, the Tmax amounted to 4.29 h under setting [1] and 3.32 h under setting [2]. Further, the “% Ratio (A/B) AUC(inf)” value under setting [3] came to 115.35%. In addition, the “% Ratio (A/B) AUC(last)” value under setting [3] was determined as 123.48%. Also, the “% Ratio (A/B) Cmax” value under setting [3] turned out to be 177.53%.

The values above are taken from patent US7714006B1, “Methods of modifying the bioavailability of metaxalone” (King Pharmaceuticals Research & Development, Inc., priority 2001, dated 2010).
